According to article PMC11597725, “New Asymmetric Gemini Triazole Surfactants with a Polar Triethylene Glycol Fragment: Synthesis and Physico-Chemical Properties” (Molecules, 2024):

Biological target: T1, bovine serum albumin (BSA) (Bos taurus, UniProt P02769)
T1 construct: gene ALB; native serum protein, BSA powder dissolved in buffer; mature form expected
Test: tryptophan fluorescence quenching, double-log plot
Format: binding
Conditions: 25 mM Tris-HCl pH 7.4, 298.15 K, BSA 10 μM, surfactant 0-700 μM
From the text: tryptophan fluorescence quenching, double-log plot on bovine serum albumin (BSA)

T1 sequence (P02769 25-607): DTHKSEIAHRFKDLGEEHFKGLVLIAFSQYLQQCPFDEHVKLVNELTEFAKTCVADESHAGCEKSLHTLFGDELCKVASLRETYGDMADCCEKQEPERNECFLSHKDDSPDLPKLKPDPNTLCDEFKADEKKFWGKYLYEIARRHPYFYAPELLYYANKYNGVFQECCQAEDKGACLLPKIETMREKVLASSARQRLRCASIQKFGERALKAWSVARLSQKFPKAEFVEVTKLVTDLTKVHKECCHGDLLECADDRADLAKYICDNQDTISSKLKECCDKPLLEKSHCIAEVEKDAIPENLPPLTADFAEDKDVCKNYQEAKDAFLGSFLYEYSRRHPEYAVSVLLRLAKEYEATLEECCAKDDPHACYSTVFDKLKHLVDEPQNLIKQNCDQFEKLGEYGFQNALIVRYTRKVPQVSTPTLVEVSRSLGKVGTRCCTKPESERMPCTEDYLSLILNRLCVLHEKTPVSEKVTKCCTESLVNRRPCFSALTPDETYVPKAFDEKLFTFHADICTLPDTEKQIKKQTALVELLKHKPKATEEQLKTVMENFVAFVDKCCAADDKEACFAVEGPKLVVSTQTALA

Row | SMILES | Kb
1 | CCCCCCCCn1cc[n+](CCCn2cc[n+](CCCn3cc(COCCOCCOCCOC)nn3)c2)c1 [14b, 1-(3-(4-(2,5,8,11-tetraoxadodecyl)-1H-1,2,3-triazol-1-yl)propyl)-3-(3-(1-octyl-1H-imidazol-3-ium-3-yl)propyl)-1H-imidazol-3-ium dibromide] | 20700 M⁻¹
2 | CCCCn1cc[n+](CCCn2cc[n+](CCCn3cc(COCCOCCOCCOC)nn3)c2)c1 [14a, 1-(3-(4-(2,5,8,11-tetraoxadodecyl)-1H-1,2,3-triazol-1-yl)propyl)-3-(3-(1-butyl-1H-imidazol-3-ium-3-yl)propyl)-1H-imidazol-3-ium dibromide] | 730 M⁻¹
3 | CCCCCCCCCCCCCCn1cc[n+](CCC[n+]2ccn(CCCn3cc(COCCOCCOCCOC)nn3)c2)c1 [14c, 1-(3-(4-(2,5,8,11-tetraoxadodecyl)-1H-1,2,3-triazol-1-yl)propyl)-3-(3-(1-tetradecyl-1H-imidazol-3-ium-3-yl)propyl)-1H-imidazol-3-ium dibromide] | 44900 M⁻¹

Other lines, results leading:

Row | Kb | SMILES
4 | 10900 M⁻¹ | CCCCCCCCCCCCCCn1cc[n+](CCC[n+]2ccn(CCOCCn3cc(COCCOCCOCCOC)nn3)c2)c1 [15c, 1-(2-(2-(4-(2,5,8,11-tetraoxadodecyl)-1H-1,2,3-triazol-1-yl)ethoxy)ethyl)-3-(3-(1-tetradecyl-1H-imidazol-3-ium-3-yl)propyl)-1H-imidazol-3-ium dibromide]
5 | 790 M⁻¹ | CCCCn1cc[n+](CCC[n+]2ccn(CCOCCn3cc(COCCOCCOCCOC)nn3)c2)c1 [15a, 1-(2-(2-(4-(2,5,8,11-tetraoxadodecyl)-1H-1,2,3-triazol-1-yl)ethoxy)ethyl)-3-(3-(1-butyl-1H-imidazol-3-ium-3-yl)propyl)-1H-imidazol-3-ium dibromide]
6 | 10000 M⁻¹ | COCCOCCOCCOCc1cn(CCOCCn2cc[n+](CCC[n+]3ccn(CCOCCn4cc(COCCOCCOCCOC)nn4)c3)c2)nn1 [15d, 3,3′-(propane-1,3-diyl)bis(1-(2-(2-(4-(2,5,8,11-tetraoxadodecyl)-1H-1,2,3-triazol-1-yl)ethoxy)ethyl)-1H-imidazol-3-ium) dibromide]
7 | 10400 M⁻¹ | CCCCCCCCn1cc[n+](CCC[n+]2ccn(CCOCCn3cc(COCCOCCOCCOC)nn3)c2)c1 [15b, 1-(2-(2-(4-(2,5,8,11-tetraoxadodecyl)-1H-1,2,3-triazol-1-yl)ethoxy)ethyl)-3-(3-(1-octyl-1H-imidazol-3-ium-3-yl)propyl)-1H-imidazol-3-ium dibromide]
8 | 34800 M⁻¹ | COCCOCCOCCOCc1cn(CCCn2cc[n+](CCC[n+]3ccn(CCCn4cc(COCCOCCOCCOC)nn4)c3)c2)nn1 [14d, 3,3′-(propane-1,3-diyl)bis(1-(3-(4-(2,5,8,11-tetraoxadodecyl)-1H-1,2,3-triazol-1-yl)propyl)-1H-imidazol-3-ium) dibromide]
